How the values were obtained:
Assay type in all cases: biochemical
[1] = target: T7 RNA Polymerase (Escherichia phage T7, UniProt P00573); details: 20 μL transcription system, Cap1 Analog 4 mM, 37° C. 2 to 3 hours
Experimental: • 1) A plasmid was linearized and the DNA template was purified. • 2) mRNA was synthesized in vitro with 51 types of capping structures of the present disclosure, or without any cap analogues. CleanCap®AG (3′OMe) (Trilink, N-7413) was applied as positive control group, uncapped mRNA was negative control group, and DNAase/RNase-Free water was a blank control group.
The system was incubated for 2 to 3 hours at 37° C. and digested by TURBO DNase for 15 min LiCl was used to precipitate mRNA for at least 30 min, or overnight, mRNA precipitates were then washed with 75% ethanol. After ethanol was quickly volatilized, mRNA was re-solubilized with RNase-Free water. • 3) The transcribed products were purified and the transcription yields were calculated.

[2] = test system: mRNA; experiment: Capping efficiency of mRNA with different cap analogs by LC-MS; details: LC-MS after RNase H cleavage
Experimental: In a PCR machine, the annealing was performed using the following gradients: • 95° C. for 5 min; 65° C. for 2 min; 55° C. for 2 min; 40° C. for 2 min; 22° C. for 2 min • 5) Pre-treatment of magnetic beads were bound with probes.
100 μL of magnetic beads were placed on a magnetic rack and the preservation solution was removed. 100 μL of 1*BW solution was added, mixed well, and placed on the magnetic rack, and the supernatant was then removed. The washing step was repeated three times. 100 μL of wash A buffer was added, mixed well, and placed on the magnetic rack, and the supernatant was then removed. The washing step was repeated three times. 100 μL of wash B buffer was added, mixed well, and placed on the magnetic rack, and the supernatant was then removed. The washing step was repeated three times. After 120 μL of sample was added, the sample and the magnetic beads solution were incubated for 30 min at room temperature, and they were gently mixed well while incubation. • 6) mRNA was spliced to obtain 5′ end mRNA single stranded sequence and binding with the probe.
20 μL of RNase H (5 U/mL) was added, incubated for 3 hours at 37° C., mixed once every half an hour. 100 μL of 1*BW solution was added, mixed well, and placed on the magnetic rack, and then the supernatant was removed. The washing step was repeated three times. Subsequently, 100 μL of deionized aqueous solution was added, mixed well, and placed on the magnetic rack, and the supernatant was then removed. The washing step was repeated three times. 100 μL of 75% methanol at 80° C. was added, and the mixture was incubated at 80° C. on a heater plate for 3 min, and placed on the magnetic rack, and the supernatant was then pipetted. The sample was dried using an evaporative centrifuge at room temperature for 45 min to 10 μL, and then resuspended in 50 μL of 100 μM EDTA solution in 1% MeOH for LC-MS analysis.
The capping efficiencies of mRNA with different cap analogs were determined by LC-MS, and some compounds of the results were shown in Table 4.

[3] = test system: mRNA Decapping Enzyme; experiment: Stability of the capped mRNA against the mRNA decapping enzymes
Experimental: • 1) The capped mRNAs were heated at 65° C. for 10 min and their secondary structures were unfolded. • 2) The concentration of mRNA Deacpping Enzyme was diluted from the original concentration (100 U/uL) to 50 U/uL, 5 U/uL, 0.5 U/uL in a 10-fold gradient dilution ratio. • 3) The capped mRNAs were added to the reaction, and the amount of enzyme in the reaction was 50 U, 5 U, 0.5 U, 0 U, respectively. The mixture was mixed with a pipette, and was incubated at 37° C. for 1 hour.
• 4) The RNA was purified using a LiCl Precipitation method, and then diluted to 500 ng/uL*20 uL for subsequent cell transfection. • 5) The cells were transfected with mRNA, and luciferase expression was detected in the same method as Experiment 2.
In FIG. 1, the luminescence unit of luciferase expressed by mRNA without decapping enzyme treatment (0 U) was 100%, and the percentage of the luminescence unit of luciferase expressed by capped mRNA treated with different concentrations of […] to the luminescence unit of luciferase expressed by capped mRNA without decapping enzyme treatment was calculated.

Chain of T7 RNA Polymerase (P00573 whole entry): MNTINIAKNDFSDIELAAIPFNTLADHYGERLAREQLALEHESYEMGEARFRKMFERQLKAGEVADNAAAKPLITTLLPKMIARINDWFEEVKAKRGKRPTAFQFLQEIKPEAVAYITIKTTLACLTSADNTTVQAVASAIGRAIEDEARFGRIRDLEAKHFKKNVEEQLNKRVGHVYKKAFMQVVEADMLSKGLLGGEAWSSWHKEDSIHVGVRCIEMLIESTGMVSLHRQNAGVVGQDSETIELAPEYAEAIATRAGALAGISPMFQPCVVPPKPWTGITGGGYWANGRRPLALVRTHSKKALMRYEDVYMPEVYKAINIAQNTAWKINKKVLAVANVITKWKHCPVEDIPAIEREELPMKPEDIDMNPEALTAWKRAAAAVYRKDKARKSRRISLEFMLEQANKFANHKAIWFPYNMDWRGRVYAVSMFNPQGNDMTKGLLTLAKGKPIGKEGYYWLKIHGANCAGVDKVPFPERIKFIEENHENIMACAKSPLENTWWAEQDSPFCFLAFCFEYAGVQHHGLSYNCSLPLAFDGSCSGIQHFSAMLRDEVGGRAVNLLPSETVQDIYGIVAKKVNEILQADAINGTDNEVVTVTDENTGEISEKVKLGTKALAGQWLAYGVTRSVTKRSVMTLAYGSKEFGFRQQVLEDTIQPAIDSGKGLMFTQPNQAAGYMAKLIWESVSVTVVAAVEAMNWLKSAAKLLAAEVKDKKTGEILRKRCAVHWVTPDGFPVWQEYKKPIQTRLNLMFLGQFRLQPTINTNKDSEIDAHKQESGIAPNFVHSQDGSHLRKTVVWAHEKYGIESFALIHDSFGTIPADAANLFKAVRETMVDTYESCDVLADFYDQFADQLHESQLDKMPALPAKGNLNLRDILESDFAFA

COC[C@H]1[C@@H](O)[C@H](n2c[n+](C)c3c(=O)[nH]c(N)nc32)O[C@@H]1COP(=O)(O)OP(=O)(O)CP(=O)(O)OC[C@H]1O[C@@H](n2cnc3c(N)ncnc32)[C@H](OC)[C@@H]1OP(=O)(O)OC[C@H]1O[C@@H](n2cnc3c(=O)[nH]c(N)nc32)[C@H](O)[C@@H]1O [Compound 173]
Final product mass obtained from the 20 μL of mRNA transcription system [1]: 118 µg
Capping efficiency [2]: A (100% > A ≥ 95%)
Stability of capped mRNA against decapping enzyme (FIG. 1) ([3]; at low concentration of decapping enzyme): the same stability as that of N-7413
Stability of capped mRNA against decapping enzyme (FIG. 1) ([3]; when the concentration of decapping enzyme was higher): a better stability than that of N-7413

From patent US12060385B2, “Compounds for RNA capping and uses thereof” (GUANGZHOU HENOVCOM BIOSCIENCE CO., LTD., priority 2022, dated 2024)
